Results published in ChEMBL document CHEMBL2390902, “Discovery of 1-(1,3,5-triazin-2-yl)piperidine-4-carboxamides as inhibitors of soluble epoxide hydrolase” (Bioorg Med Chem Lett, 2013).

Key:
[1] = Plasma clearance in rat at 1 mg/kg, iv; assay type: ADME, organism-based; design: dose 1 mg/kg, route intravenous
Cytochrome P450 2C9 = Cytochrome P450 2C9 (Homo sapiens, UniProt P11712)
Description: Inhibition of CYP2C9 (unknown origin)

[2] = target: T1, Bifunctional epoxide hydrolase 2 (Homo sapiens, UniProt P34913)
T1 sequence (P34913 whole entry): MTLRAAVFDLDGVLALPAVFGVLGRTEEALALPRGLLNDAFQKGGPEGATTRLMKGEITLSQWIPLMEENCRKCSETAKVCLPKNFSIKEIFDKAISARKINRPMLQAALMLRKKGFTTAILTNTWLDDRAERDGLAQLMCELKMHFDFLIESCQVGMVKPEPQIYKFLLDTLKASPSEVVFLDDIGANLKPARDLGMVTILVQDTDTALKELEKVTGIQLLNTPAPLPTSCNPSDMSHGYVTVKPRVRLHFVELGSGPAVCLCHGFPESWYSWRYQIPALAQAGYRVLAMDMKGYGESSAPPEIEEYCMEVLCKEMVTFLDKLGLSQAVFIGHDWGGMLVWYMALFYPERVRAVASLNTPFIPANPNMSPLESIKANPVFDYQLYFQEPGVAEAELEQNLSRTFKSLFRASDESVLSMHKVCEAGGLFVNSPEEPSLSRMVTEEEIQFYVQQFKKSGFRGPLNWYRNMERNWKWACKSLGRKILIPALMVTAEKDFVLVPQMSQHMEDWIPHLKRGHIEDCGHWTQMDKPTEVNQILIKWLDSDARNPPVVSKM
Description: Inhibition of human soluble epoxide hydrolase using PHOME as substrate assessed as formation of 6-methoxy-2-naphthaldehyde incubated for 10 mins prior to substrate addition measured with in 30 mins by fluorescence assay

[3] = target: T1, Bifunctional epoxide hydrolase 2; remark: listed apart in the source
Description: Inhibition of human soluble epoxide hydrolase overexpressed in HEK293F cells using EET as substrate assessed as formation of DHET incubated for 30 mins prior to substrate addition measured after 60 mins by ELISA

[4] = Fraction unbound in rat plasma; assay type: ADME, cell-free

Chain of Cytochrome P450 2C9 (P11712 whole entry): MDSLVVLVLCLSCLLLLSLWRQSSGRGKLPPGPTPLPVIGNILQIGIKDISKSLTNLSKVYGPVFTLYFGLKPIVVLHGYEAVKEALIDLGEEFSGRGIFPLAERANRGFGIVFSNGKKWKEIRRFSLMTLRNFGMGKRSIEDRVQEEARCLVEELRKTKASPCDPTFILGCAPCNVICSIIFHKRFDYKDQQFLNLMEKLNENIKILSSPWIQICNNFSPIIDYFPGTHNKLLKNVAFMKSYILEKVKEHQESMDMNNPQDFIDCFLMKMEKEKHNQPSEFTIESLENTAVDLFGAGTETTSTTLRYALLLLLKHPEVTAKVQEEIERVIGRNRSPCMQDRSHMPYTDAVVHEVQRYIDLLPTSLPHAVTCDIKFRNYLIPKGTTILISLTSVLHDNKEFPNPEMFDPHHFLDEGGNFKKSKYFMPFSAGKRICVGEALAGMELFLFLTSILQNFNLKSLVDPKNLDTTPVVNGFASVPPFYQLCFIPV

clearance [1] | IC50 (Cytochrome P450 2C9) | IC50 [2] | IC50 [3] | fraction unbound [4] | SMILES
46 mL/min/kg |  |  |  |  | CNc1nc(N2CCC(C(=O)NCc3ccccc3C(F)(F)F)CC2)nc(N2CCN(C)CC2)n1
51 mL/min/kg | 25000 nM | 3 nM | 100 nM |  | CNc1nc(C)nc(N2CCC(C(=O)NCc3ccccc3C(F)(F)F)CC2)n1
27 mL/min/kg | 1800 nM | 1 nM | 1 nM |  | COCCNc1nc(C)nc(N2CCC(C(=O)NCc3ccccc3C(F)(F)F)CC2)n1
 | > 25000 nM | 1600 nM |  |  | CNc1nc(C)nc(N2CCC(C(=O)NCc3ccccc3OC)CC2)n1
 | 63 nM | 1 nM |  |  | CNc1nc(C2CCCCC2)nc(N2CCC(C(=O)NCc3ccccc3C(F)(F)F)CC2)n1
44 mL/min/kg | > 25000 nM | 1 nM | 3 nM |  | CNc1nc(C)nc(N2CCC(C(=O)NCc3ccccc3OC(F)(F)F)CC2)n1
 | 9600 nM | 4 nM | 80 nM |  | CCc1nc(NC)nc(N2CCC(C(=O)NCc3ccccc3C(F)(F)F)CC2)n1
 | > 25000 nM | 200 nM |  |  | CNc1nc(C)nc(N2CCC(C(=O)NCc3ccccc3)CC2)n1
79 mL/min/kg | 25000 nM | 20 nM | 100 nM |  | CNc1nc(NC)nc(N2CCC(C(=O)NCc3ccccc3C(F)(F)F)CC2)n1
61 mL/min/kg | 11000 nM | 10 nM | 100 nM |  | CNc1cc(C)cc(N2CCC(C(=O)NCc3ccccc3C(F)(F)F)CC2)n1
3 mL/min/kg | 1800 nM | 1 nM | 63 nM | 0.015 | CNc1nc(-c2ccccc2)nc(N2CCC(C(=O)NCc3ccccc3C(F)(F)F)CC2)n1
 | > 25000 nM | 3 nM | 50 nM |  | CNc1nc(C)nc(N2CCC(C(=O)NCc3ccc(F)cc3C(F)(F)F)CC2)n1

The next lines start with the compound.

SMILES | clearance [1] | IC50 (Cytochrome P450 2C9) | IC50 [2] | IC50 [3] | fraction unbound [4]
CNc1nc(C)nc(N2CCC(C(=O)NCc3ccccc3C#N)CC2)n1 |  | > 25000 nM | 80 nM |  | 
CNc1cc(C)cc(N2CCC(C(=O)NCc3ccccc3C(F)(F)F)CC2)c1 |  | 2000 nM | 32 nM |  | 
CNc1cc(N2CCC(C(=O)NCc3ccccc3C(F)(F)F)CC2)cc(C)n1 |  | > 25000 nM | 126 nM |  | 
CNc1nc(C)cc(N2CCC(C(=O)NCc3ccccc3C(F)(F)F)CC2)n1 |  | > 25000 nM | 40 nM |  | 
CNc1nc(N(C)CCN(C)C)nc(N2CCC(C(=O)NCc3ccccc3C(F)(F)F)CC2)n1 | 140 mL/min/kg | 17000 nM | 80 nM |  | 
CNc1nc(C)nc(N2CCC(C(=O)NCc3ccc(OC(F)(F)F)cc3)CC2)n1 |  | > 25000 nM | 400 nM |  | 
CNc1nc(C)nc(N2CCC(C(=O)NCc3ccccc3C)CC2)n1 |  | > 25000 nM | 200 nM |  | 
Cc1nc(NC(C)C)nc(N2CCC(C(=O)NCc3ccccc3C(F)(F)F)CC2)n1 |  | 400 nM | 1 nM | 10 nM | 
CNc1nc(C)nc(N2CCC(C(=O)NCc3ccc(OC)cc3C(F)(F)F)CC2)n1 | 7 mL/min/kg | > 25000 nM | 1 nM | 2 nM | 
CNc1cc(C)nc(N2CCC(C(=O)NCc3ccccc3C(F)(F)F)CC2)c1 |  | > 25000 nM | 1590 nM |  | 
Cc1nc(N2CCOCC2)nc(N2CCC(C(=O)NCc3ccccc3C(F)(F)F)CC2)n1 |  | 400 nM | 1 nM | 3 nM | 
CNc1cc(N2CCC(C(=O)NCc3ccccc3C(F)(F)F)CC2)nc(C)n1 | 73 mL/min/kg | 1000 nM | 5 nM | 80 nM | 
CNc1cc(C)nc(N2CCC(C(=O)NCc3ccccc3C(F)(F)F)CC2)n1 |  | > 25000 nM | 160 nM |  | 
CNc1nc(C)nc(N2CCC(C(=O)NCc3cccc(OC(F)(F)F)c3)CC2)n1 |  | > 25000 nM | 630 nM |  | 
